A short description of one series: in vitro. The following applies: human, Caco-2, pH 7.4. The method, boiled down:
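Caco-2 monolayers, checked by TEER with Lucifer yellow as marker, were dosed with 10 μM compound in HBSS pH 7.4 in A-to-B and B-to-A directions. Incubation was 90 min at 37° C, in duplicate. Samples were quantified by LC-MS/MS and Papp calculated.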

In series [1] the target is T1, Jurkat cells expressing CXCR4 (Homo sapiens, UniProt P61073).
T1 construct: endogenous in cells; host or cells: Jurkat
Nature of the series: Chemokine (CXCL12-AF647) binding inhibition assay. The following applies: CXCL12-AF647 25 ng/mL, read-out: IC50 CXCL-12 binding Jurkat. The method in brief:
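Cells in HBSS, 20 mM HEPES, 0.2% BSA, pH 7.4, preincubated 15 min at room temperature with compound, then 25 ng/mL CXCL12-AF647 for 30 min. After washing and paraformaldehyde fixation, bound ligand read by flow cytometry; percent inhibition calculated from MFI relative to unlabeled and ligand-only controls.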

The target in series [2] is T2, CXCR-4 transfected U87 cell line (U87.CXCR4) (Homo sapiens, UniProt P61073).
T2 construct: expressed in transfected cells; host or cells: U87 (U87.CXCR4)
Nature of the series: Intracellular CXCL-12-induced calcium mobilization assay (FLIPR). As to conditions: U87.CXCR4 cells; CXCL-12 25-50 ng/mL; compound added 15 min before; read-out: IC50 CXCL-12 Ca^2+ flux U87.CXCR4+. Type of series: cell-based. The method, boiled down:
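U87 cells stably expressing human CXCR4, loaded with Fluo-2 AM (4 μM final) for 45 min at 37 °C in HBSS/20 mM HEPES/0.2% BSA, pH 7.4. Calcium flux triggered by CXCL-12 (25-50 ng/mL) was followed by FLIPR fluorescence over time at 37 °C.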

By Papp A→B is commonly meant how fast a substance crosses the layer from the apical side. Low values mean poor permeation, high ones ready permeation. The Papp B→A is the apparent permeability from the basolateral to the apical side of a cell layer. Usually efflux ratio stands for the permeability from basolateral to apical divided by that in the opposite direction, in the common usage. The term IC50 denotes the point on the concentration scale where inhibition reaches its midpoint.

T1 sequence (P61073 whole entry): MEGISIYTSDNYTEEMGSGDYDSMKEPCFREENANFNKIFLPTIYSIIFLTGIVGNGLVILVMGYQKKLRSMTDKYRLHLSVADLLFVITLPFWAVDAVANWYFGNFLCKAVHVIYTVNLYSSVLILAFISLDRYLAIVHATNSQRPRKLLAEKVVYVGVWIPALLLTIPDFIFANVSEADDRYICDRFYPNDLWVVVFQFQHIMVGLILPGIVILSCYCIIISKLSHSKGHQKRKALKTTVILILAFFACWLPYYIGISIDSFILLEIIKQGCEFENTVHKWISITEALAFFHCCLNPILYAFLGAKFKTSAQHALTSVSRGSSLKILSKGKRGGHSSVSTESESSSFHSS
T2 sequence (P61073 whole entry): as above

In the case of `CN1[C@@H](c2nc3cccc(N4CCN5CCCC5C4)c3[nH]2)CCC[C@H]1c1ncccc1Cl` (stereo partly shown) [I-150], in the series “in vitro”, the Papp A→B at 90 min, 10 μM lay in the range of 10 to 30 ×10⁻⁶ cm/s; the apparent permeability from basolateral to apical (Papp B→A) at 90 min, 10 μM lay in the range of 10 to 30 ×10⁻⁶ cm/s; the efflux ratio at 90 min, 10 μM fell in the range of 0.1 to 10. For the same compound, the IC50 in series [1] is 0.01 to 100 nM. Also, in series [2], the IC50 lay in the range of 0.01 to 100 nM.

On to `Cc1cccnc1[C@@H]1CCC[C@H](c2nc3cccc(N4CCN(C)CC4)c3n2C)N1C` [I-35], for which, in “in vitro”, the Papp A→B at 90 min, 10 μM lay within 0.1 to 10 ×10⁻⁶ cm/s; the Papp B→A at 90 min, 10 μM was 0.1 to 10 ×10⁻⁶ cm/s; the efflux ratio at 90 min, 10 μM was 0.1 to 10. For the same compound, the IC50 in series [1] lay in the range of 0.01 to 100 nM. The IC50 in series [2] was 0.01 to 100 nM.

In the case of `Cc1cccnc1[C@@H]1CCC[C@H](c2nc3cccc(N4CCNC(C)(C)C4)c3[nH]2)N1C` [I-52], in “in vitro”, the Papp A→B at 90 min, 10 μM lay within 0.1 to 10 ×10⁻⁶ cm/s; the Papp B→A at 90 min, 10 μM was 10 to 30 ×10⁻⁶ cm/s; the efflux ratio at 90 min, 10 μM lay within 10 to 30. Also, the IC50 in series [1] lay within 0.01 to 100 nM. For the same compound, the IC50 in series [2] fell in the range of 0.01 to 100 nM.

For `Cc1cccnc1[C@@H]1CCC[C@H](c2nc3ccccc3n2CC2CCCNC2)N1C` (stereo partly drawn) [I-12, 2-((2R,6S)-1-methyl-6-(3-methylpyridin-2-yl)piperidin-2-yl)-1-(piperidin-3-ylmethyl)-1H-benzo[d]imidazole], in the series “in vitro”, the Papp A→B at 90 min, 10 μM lay in the range of 0.1 to 10 ×10⁻⁶ cm/s; the Papp B→A at 90 min, 10 μM fell in the range of 10 to 30 ×10⁻⁶ cm/s; the efflux ratio at 90 min, 10 μM fell in the range of 10 to 30. For the same compound, in series [1], the IC50 lay within 0.01 to 100 nM. For the same compound, in series [2], the IC50 was in the range of 0.01 to 100 nM.

As for `CN1CCN(c2cccc3nc([C@H]4CCC[C@@H](c5ncccc5OC(F)(F)F)N4C)[nH]c23)CC1` [I-63], in the series “in vitro”, the Papp A→B at 90 min, 10 μM was 10 to 30 ×10⁻⁶ cm/s; the Papp B→A at 90 min, 10 μM lay in the range of 0.1 to 10 ×10⁻⁶ cm/s; the efflux ratio at 90 min, 10 μM fell in the range of 0.1 to 10. For the same compound, in series [1], the IC50 lay in the range of 100 to 1000 nM. For the same compound, in series [2], the IC50 lay within 0.01 to 100 nM.

Take `Cc1cccnc1[C@@H]1CCC[C@H](c2nc3cccc(N4CCN(C5CC5)CC4)c3[nH]2)N1` [I-125]: in “in vitro”, the Papp A→B at 90 min, 10 μM was 10 to 30 ×10⁻⁶ cm/s; the Papp B→A at 90 min, 10 μM fell in the range of 10 to 30 ×10⁻⁶ cm/s; the efflux ratio at 90 min, 10 μM was in the range of 0.1 to 10. In series [1], the IC50 was in the range of 0.01 to 100 nM. For the same compound, the IC50 in series [2] is 0.01 to 100 nM.

With `CN1CCN(c2cccc3nc([C@H]4CCC[C@@H](c5nccc6ccccc56)N4C)[nH]c23)CC1` [I-88], in the series “in vitro”, the Papp A→B at 90 min, 10 μM fell in the range of 0.1 to 10 ×10⁻⁶ cm/s; the Papp B→A at 90 min, 10 μM fell in the range of 0.1 to 10 ×10⁻⁶ cm/s; the efflux ratio at 90 min, 10 μM lay within 0.1 to 10. For the same compound, the IC50 in series [1] lay in the range of 0.01 to 100 nM. In addition, the IC50 in series [2] fell in the range of 0.01 to 100 nM.

With `CN1CCN(c2cccc3nc([C@H]4CCC[C@@H](c5ccccn5)N4C)[nH]c23)CC1` [I-29, 2-((2R,6S)-1-methyl-6-(pyridin-2-yl)piperidin-2-yl)-7-(4-methylpiperazin-1-yl)-1H-benzo[d]imidazole], in the series “in vitro”, the Papp A→B at 90 min, 10 μM is 10 to 30 ×10⁻⁶ cm/s; the Papp B→A at 90 min, 10 μM was 10 to 30 ×10⁻⁶ cm/s; the efflux ratio at 90 min, 10 μM was 0.1 to 10. Moreover, the IC50 in series [1] fell in the range of 0.01 to 100 nM. Moreover, the IC50 in series [2] was in the range of 100 to 1000 nM.

Regarding `Cc1cccnc1[C@@H]1CCC[C@H](c2nc3cccc(N4C[C@@H](C)N(C)[C@@H](C)C4)c3[nH]2)N1C` [I-54], in “in vitro”, the Papp A→B at 90 min, 10 μM lay in the range of 10 to 30 ×10⁻⁶ cm/s; the Papp B→A at 90 min, 10 μM lay within 10 to 30 ×10⁻⁶ cm/s; the efflux ratio at 90 min, 10 μM was 0.1 to 10. Moreover, in series [1], the IC50 lay within 0.01 to 100 nM. Besides, the IC50 in series [2] lay in the range of 0.01 to 100 nM.

On to `Cc1cccnc1[C@@H]1CCC[C@H](c2nccn2C2CCN(C)CC2)N1C` [I-168], for which, in the series “in vitro”, the Papp A→B at 90 min, 10 μM lay in the range of 0.1 to 10 ×10⁻⁶ cm/s; the Papp B→A at 90 min, 10 μM fell in the range of 10 to 30 ×10⁻⁶ cm/s; the efflux ratio at 90 min, 10 μM fell in the range of 0.1 to 10. The IC50 in series [1] lay within 0.01 to 100 nM. Further, in series [2], the IC50 was 0.01 to 100 nM.

As for `Cc1ccnnc1[C@@H]1CCC[C@H](c2nc3cccc(N4CCN(C)CC4)c3[nH]2)N1C` [I-84], in the series “in vitro”, the Papp A→B at 90 min, 10 μM was 0.1 to 10 ×10⁻⁶ cm/s; the Papp B→A at 90 min, 10 μM lay within 10 to 30 ×10⁻⁶ cm/s; the efflux ratio at 90 min, 10 μM lay in the range of 10 to 30. The IC50 in series [1] was in the range of 100 to 1000 nM. Further, the IC50 in series [2] was not below 1000 nM.

The values are drawn from US10988465B2, “CXCR4 inhibitors and uses thereof” (X4 Pharmaceuticals, Inc., priority 2016, dated 2021).
